Results published in ChEMBL document CHEMBL1201862, “PubChem BioAssay data set” (2004).
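A five-concentration, 48-hour dose response in 96-well plates underlies each endpoint, interpolated linearly between surrounding concentrations. The concentration for 50% growth inhibition is given as GI50.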 Calls of active or inactive are those of the source. Rule as the data show it: active = GI50 up to about 1.1 µM and inactive = higher.

Tests used:
Experiment in all cases: NCI anticancer screen, dose series, 48 h
[1] = system: 786-0
[2] = system: A549
[3] = system: ACHN
[4] = system: BT-549
[5] = system: CAKI-1
[6] = system: CCRF-CEM
[7] = system: COLO 205
[8] = system: DU-145
[9] = system: EKVX
[10] = system: HCC 2998
[11] = system: HCT-116
[12] = system: HCT-15
[13] = system: HL-60
[14] = system: HOP-62
[15] = system: HOP-92
[16] = system: HT-29
[17] = system: Hs-578T
[18] = system: IGROV-1
[19] = system: K562
[20] = system: KM12
[21] = system: LOX IMVI
[22] = system: M14
[23] = system: MCF7
[24] = system: MDA-MB-231
[25] = system: MDA-MB-435
[26] = system: MDA-N
[27] = system: MOLT-4
[28] = system: Malme-3M
[29] = system: NCI-H226
[30] = system: NCI-H23
[31] = system: NCI-H460
[32] = system: NCI-H522
[33] = system: NCI/ADR-RES
[34] = system: OVCAR-3
[35] = system: OVCAR-4
[36] = system: OVCAR-5
[37] = system: OVCAR-8
[38] = system: PC-3
[39] = system: RPMI-8226
[40] = system: SF-268
[41] = system: SF-295
[42] = system: SF-539
[43] = system: SK-MEL-28
[44] = system: SK-MEL-2
[45] = system: SK-MEL-5
[46] = system: SK-OV-3
[47] = system: SN12C
[48] = system: SNB-19
[49] = system: SNB-75
[50] = system: SR
[51] = system: SW-620
[52] = system: T47D
[53] = system: TK-10
[54] = system: U-251
[55] = system: UACC-257
[56] = system: UACC-62
[57] = system: UO-31

For C=C1CC(COc2ccc3ccc(=O)oc3c2)(c2ccccc2)OC1=O (configuration not stated), the GI50 [1] was 1.46 µM (inactive), the GI50 [2] was 10.6 µM (inactive) and the GI50 [3] was 2.01 µM (inactive). For the same molecule, the GI50 [4] was 1.54 µM (inactive), the GI50 [5] was 0.885 µM (active) and the GI50 [6] was 0.233 µM (active). The GI50 [7] was 0.625 µM (active), the GI50 [8] was 2.77 µM (inactive) and the GI50 [9] was 7.5 µM (inactive). The GI50 [10] was 1.27 µM (inactive), the GI50 [11] was 0.597 µM (active) and the GI50 [12] was 1.87 µM. For the same molecule, the GI50 [13] was 0.0803 µM (active), the GI50 [14] was 11.6 µM (inactive) and the GI50 [15] was 0.685 µM (active). The GI50 [16] was 0.627 µM (active), the GI50 [17] was 4.03 µM (inactive) and the GI50 [18] was 1.64 µM (inactive). The GI50 [19] was 0.266 µM (active), the GI50 [20] was 3.27 µM (inactive) and the GI50 [21] was 0.942 µM (active). For the same molecule, the GI50 [22] was 1.18 µM (inactive), the GI50 [23] was 1.26 µM (inactive) and the GI50 [24] was 2.52 µM (inactive). For the same molecule, the GI50 [25] was 2.61 µM (inactive), the GI50 [26] was 1.11 µM (active) and the GI50 [27] was 1.25 µM (inactive). The GI50 [28] was 2.33 µM (inactive), the GI50 [29] was 5.3 µM (inactive) and the GI50 [30] was 0.912 µM (active). The GI50 [31] was 10.5 µM (inactive), the GI50 [32] was 0.501 µM (active) and the GI50 [33] was 2.48 µM (inactive). For the same molecule, the GI50 [34] was 1.61 µM (inactive), the GI50 [35] was 1.49 µM (inactive) and the GI50 [36] was 5.87 µM (inactive). The GI50 [37] was 2.21 µM (inactive), the GI50 [38] was 2.69 µM (inactive) and the GI50 [39] was 0.143 µM (active). For the same molecule, the GI50 [40] was 3.27 µM (inactive), the GI50 [41] was 6.78 µM (inactive) and the GI50 [42] was 3.46 µM (inactive). For the same molecule, the GI50 [43] was 2.3 µM (inactive), the GI50 [44] was 1.53 µM (inactive) and the GI50 [45] was 1.47 µM (inactive). The GI50 [46] was 5.02 µM (inactive), the GI50 [47] was 2.73 µM (inactive) and the GI50 [48] was 15 µM (inactive). The GI50 [49] was 5.92 µM (inactive), the GI50 [50] was 0.867 µM (active) and the GI50 [51] was 0.316 µM (active). For the same molecule, the GI50 [52] was 1.87 µM (inactive), the GI50 [53] was 1.54 µM (inactive) and the GI50 [54] was 8.93 µM (inactive). The GI50 [55] was 1.71 µM (inactive), the GI50 [56] was 1.45 µM (inactive) and the GI50 [57] was 5.19 µM (inactive).
